In publication PMC3614091 (Organic & biomolecular chemistry, 2010):
Values belong to the compound of their own block, whether it stands above or below them.

Assays:
[1] = biological target: T1, PICK1 PDZ domain (Rattus norvegicus, UniProt Q9EP80); details: cited from earlier work
[2] = biological target: T2, PDZ2 of PSD-95 (Homo sapiens, UniProt P78352); details: PDZ domains from PSD-95; cited from earlier work
[3] = system: PDZ4-5 of glutamate receptor interacting protein-1 (GRIP1); details: PDZ4-5 of GRIP1; cited from earlier work
[4] = biological target: T3, PDZ3 of PSD-95 (Homo sapiens, UniProt P78352); details: PDZ domains from PSD-95; cited from earlier work
[5] = system: hippocampal CA1 neurons; details: cited from earlier work
[6] = system: PICK1; details: biochemical studies; cited from earlier work
[7] = biological target: T1, PICK1 PDZ domain; assay type: binding; details: for affinity for PICK1 PDZ domain: at up to 500 µM concentrations (data not shown)
[8] = system: AMPA receptor trafficking; details: cited from earlier work
[9] = biological target: T4, PDZ1 of PSD-95 (Homo sapiens, UniProt P78352); details: PDZ domains from PSD-95; cited from earlier work
[10] = biological target: T4, PDZ1 of PSD-95; assay: Fluorescence polarization assay, PSD-95 PDZ1; assay type: binding; details: tested at 500 µM (data not shown)
[11] = biological target: T2, PDZ2 of PSD-95; assay: Fluorescence polarization assay, PSD-95 PDZ2; assay type: binding; details: tested at 500 µM (data not shown)
[12] = biological target: T3, PDZ3 of PSD-95; assay: Fluorescence polarization assay, PSD-95 PDZ3; assay type: binding; details: tested at 500 µM (data not shown)

T1 sequence (Q9EP80 whole entry, the tested form may be a part): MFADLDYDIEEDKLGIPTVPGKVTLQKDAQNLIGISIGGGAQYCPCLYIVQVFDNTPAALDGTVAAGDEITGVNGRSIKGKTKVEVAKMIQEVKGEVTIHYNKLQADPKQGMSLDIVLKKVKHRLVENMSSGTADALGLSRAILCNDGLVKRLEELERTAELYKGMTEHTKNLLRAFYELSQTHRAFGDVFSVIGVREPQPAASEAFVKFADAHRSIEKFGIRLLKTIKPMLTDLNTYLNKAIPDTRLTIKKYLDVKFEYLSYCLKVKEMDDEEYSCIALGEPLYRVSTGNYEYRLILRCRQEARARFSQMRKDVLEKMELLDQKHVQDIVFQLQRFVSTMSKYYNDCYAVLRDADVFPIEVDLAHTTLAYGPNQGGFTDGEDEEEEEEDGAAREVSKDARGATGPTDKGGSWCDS

Compound: CCOC(=O)NC(=O)C(C#N)Cc1ccc(Cl)c(Cl)c1 (centres unmarked) [Compound 3, Ethyl 2-cyano-3-(3,4-dichlorophenyl)propanoylcarbamate]
affinity towards PDZ1 of PSD-95 [10]: none of the compounds showed affinity | affinity towards PDZ2 of PSD-95 [11]: none of the compounds showed affinity | affinity towards PDZ3 of PSD-95 [12]: none of the compounds showed affinity | affinity for PICK1 PDZ domain [7]: devoid of affinity

Compound: CCOC(=O)NC(=O)/C=C/c1ccc(Cl)c(Cl)c1 [Compound 5, (E)-ethyl 3-(3,4-dichlorophenyl)acryloylcarbamate]
affinity towards PDZ1 of PSD-95 [10]: none of the compounds showed affinity | affinity towards PDZ2 of PSD-95 [11]: none of the compounds showed affinity | affinity towards PDZ3 of PSD-95 [12]: none of the compounds showed affinity | affinity for PICK1 PDZ domain [7]: devoid of affinity

Second part, led by results:

Ki [7]: 9.6 ± 0.22 µM
Compound: CCOC(=O)NC(=O)/C(C#N)=C/c1ccc(Cl)c(Cl)c1 [Compound 1, (E)-ethyl 2-cyano-3-(3,4-dichlorophenyl)acryloylcarbamate]
binding to PICK1 PDZ domain in living cells ([1]; intracellular FRET): binds the PICK1 PDZ domain in living cells | membrane permeability ([1]; not told): membrane permeable | affinity for PDZ2 of PSD-95 [2]: no affinity | affinity for PDZ domains from GRIP1 [3]: no affinity | affinity for PDZ3 of PSD-95 [4]: no affinity | effect on induction of LTD and LTP [5]: inhibited induction of LTD and LTP | reversibility of binding to PICK1 [6]: binds reversibly | effect on AMPA receptor trafficking [8]: affected AMPA receptor trafficking | affinity for PDZ1 of PSD-95 [9]: no affinity

affinity towards PDZ1 of PSD-95 [10]: none of the compounds showed affinity | affinity towards PDZ2 of PSD-95 [11]: none of the compounds showed affinity | affinity towards PDZ3 of PSD-95 [12]: none of the compounds showed affinity | affinity for PICK1 PDZ domain [7]: devoid of affinity
Compound: CCCCNC(=O)/C(C#N)=C/c1ccc(Cl)c(Cl)c1 [Compound 8, (E)-N-butyl-2-cyano-3-(3,4-dichlorophenyl)acrylamide]

affinity towards PDZ1 of PSD-95 [10]: none of the compounds showed affinity | affinity towards PDZ2 of PSD-95 [11]: none of the compounds showed affinity | affinity towards PDZ3 of PSD-95 [12]: none of the compounds showed affinity | affinity for PICK1 PDZ domain [7]: devoid of affinity
Compound: CCOC(=O)NC/C(C#N)=C/c1ccc(Cl)c(Cl)c1 [Compound 14, (Z)-ethyl 2-cyano-3-(3,4-dichlorophenyl)allylcarbamate]
